Measurements from publication PMC4237514, “Novel amino-β-lactam derivatives as potent cholesterol absorption inhibitors” (European Journal of Medicinal Chemistry, 2014).
pIC50: −log10 of the molar value. Where “and” joins values, the source holds several entries; their conditions need not be identical. Equal entries are not always repeated.

Experiments:
human NPC1L1 = molecular target: T1, human NPC1L1 (Homo sapiens, UniProt Q9UHC9); experiment: In vitro [3H]cholesterol uptake assay in hNPC1L1/MDCKII cells; assay type: cell-based; conditions: for pIC50: 1 h, read-out: IC50, cholesterol uptake inhibition; for inhibition at 120 µM: MDCK-II, maximum at 120 μM, compared to untreated cells
T1 construct: expressed in transfected cells
T1 sequence (Q9UHC9 22-1359): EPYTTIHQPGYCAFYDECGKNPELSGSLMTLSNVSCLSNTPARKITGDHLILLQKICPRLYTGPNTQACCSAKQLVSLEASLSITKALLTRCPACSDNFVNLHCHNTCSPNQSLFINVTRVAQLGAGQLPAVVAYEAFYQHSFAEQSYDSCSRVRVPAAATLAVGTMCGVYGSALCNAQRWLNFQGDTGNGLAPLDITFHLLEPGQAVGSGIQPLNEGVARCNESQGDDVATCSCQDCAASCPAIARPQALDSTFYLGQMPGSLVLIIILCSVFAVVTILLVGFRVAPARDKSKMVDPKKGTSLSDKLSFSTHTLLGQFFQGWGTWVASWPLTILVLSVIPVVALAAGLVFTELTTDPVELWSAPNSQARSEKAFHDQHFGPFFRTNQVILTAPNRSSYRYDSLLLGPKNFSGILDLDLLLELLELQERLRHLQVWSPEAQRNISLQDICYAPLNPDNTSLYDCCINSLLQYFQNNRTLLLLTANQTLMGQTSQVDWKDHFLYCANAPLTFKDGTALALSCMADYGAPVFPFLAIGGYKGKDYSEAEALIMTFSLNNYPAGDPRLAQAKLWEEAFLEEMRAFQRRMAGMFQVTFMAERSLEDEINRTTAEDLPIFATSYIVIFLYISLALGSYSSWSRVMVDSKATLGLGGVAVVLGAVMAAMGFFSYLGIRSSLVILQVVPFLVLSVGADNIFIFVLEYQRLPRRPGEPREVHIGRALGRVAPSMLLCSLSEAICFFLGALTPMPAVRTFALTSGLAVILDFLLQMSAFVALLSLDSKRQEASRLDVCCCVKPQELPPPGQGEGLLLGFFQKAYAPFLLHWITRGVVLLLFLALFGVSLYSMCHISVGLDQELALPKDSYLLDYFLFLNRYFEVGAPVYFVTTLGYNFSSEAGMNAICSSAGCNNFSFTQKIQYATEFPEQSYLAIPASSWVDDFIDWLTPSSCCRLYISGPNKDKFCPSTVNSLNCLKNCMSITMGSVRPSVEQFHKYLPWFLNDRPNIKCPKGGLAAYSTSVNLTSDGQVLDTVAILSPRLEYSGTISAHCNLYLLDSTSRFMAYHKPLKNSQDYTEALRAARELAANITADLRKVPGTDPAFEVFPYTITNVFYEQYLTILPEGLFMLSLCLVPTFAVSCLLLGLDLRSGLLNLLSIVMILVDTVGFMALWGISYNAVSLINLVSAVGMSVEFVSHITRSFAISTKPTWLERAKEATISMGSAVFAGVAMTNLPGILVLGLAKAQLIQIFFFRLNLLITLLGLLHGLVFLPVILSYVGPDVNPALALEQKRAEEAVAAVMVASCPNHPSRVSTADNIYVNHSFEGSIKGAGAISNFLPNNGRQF
Description: Medium A contained DMEM plus 100 units/mL penicillin and 100 μg/mL streptomycin supplemented with 5% lipoprotein-deficient serum (density > 1.21 g/mL, prepared from FCS by ultracentrifugation). Cholesterol Replenishing Medium (Medium B) was prepared according to the modified method reported by Field et al.. In brief, 0.25 mM oleic acid, 50 μM free cholesterol, 10 μM compactin, 50 μM mevalonate, 5 mM Na-taurocholate (Sigma–Aldrich, Germany), and [^3H]cholesterol (0.18 μCi/mL medium, [1,2–3H(N)] cholesterol, 1 mCi/mL (ARC Inc., USA)) in Medium A were mixed and sonicated. Following the micellar formation, compounds 1, 5, 6, 5/6 (70:30), and 6/5 (85:15) (73 mM stock solution in DMSO) were added to Medium B and vortexed to obtain the final concentrations (10, 30, 60, 90, 120, 150, 200 μM).
MDCKII wildtype and hNPC1L1/MDCKII cells were seeded in 24-well plates at a density of 5 × 10^5 cells/mL medium (500 μL medium/well) in Medium A 24 h before the treatment. Cells were washed once with PBS and incubated in Medium B (500 μL medium/well) containing micelles and tested compounds in indicated concentrations for 1 h. Following the incubation, the medium was removed and cells were washed three times with ice-cold 0.2% free fatty acid-free BSA. Cells were lysed and radioactivity in the lysate (100 μL) was determined by liquid scintillation counting. Protein concentrations of the lysates were determined with the DC Protein Assay (Bio-Rad, USA). The results were calculated as cpm/mg protein and expressed as percentage of inhibition compared to untreated cells. Each concentration was tested in duplicate in three independent experiments.

cholesterol absorption = experiment: In vivo acute cholesterol absorption; parameters: species or system C57BL/6 mice; conditions: mice; for In vivo inhibition (%) of cholesterol absorption, Duodenum / In vivo inhibition (%) of cholesterol absorption, Ileum / In vivo inhibition (%) of cholesterol absorption, Jejunum / In vivo inhibition (%) of cholesterol absorption, Liver / In vivo inhibition (%) of cholesterol absorption, Plasma: [3H]cholesterol reduction relative to vehicle
Description: In vivo, we first determined the consequences of ezetimibe 1 and amino alcohols 5 and 6 on cholesterol absorption. We therefore gavaged mice with 2 μCi [^3H]cholesterol and 10 mg/kg/day of each compound or vehicle, and radioactivity was measured in plasma, liver, and three equal parts of the intestine (duodenum, jejunum, ileum). Percentage of [^3H]cholesterol reduction is presented relative to vehicle, respectively. […] We therefore increased the dose to 20 mg/kg/day and determined inhibition of cholesterol absorption. The inhibition in duodenum and jejunum was similar to the lower dose, whereas in ileum it raised from 21% to 41% (Table 3). Decreased cholesterol absorption of 5 in the small intestine compared to ezetimibe 1 might be explained by the fact that 2-azetidinones are moderate acyl-coenzyme A:cholesterol acyltransferase inhibitors and their level of activity is highly structure-dependent. It might therefore be speculated that acyl-coenzyme A:cholesterol acyltransferase activity of amino alcohols 5 and 6 and their diastereoisomeric mixtures is altered compared to ezetimibe 1.
Male C57BL/6 mice aged 25–28 weeks were maintained under a 12 h light/12 h dark cycle in a temperature-controlled environment with free access to chow diet (Ssniff, Germany) and water. For 2 days, mice (n = 3–5) were fasted for 4 h and gavaged with corn oil (100 μl) (vehicle) containing ezetimibe 1 (10 mg/kg/day) or compounds 5, 6, and 5/6 (70:30) (10 or 20 mg/kg/day). On day 2, 90 min post vehicle or compound treatment, mice were gavaged with corn oil (200 μl) containing [^3H]cholesterol (2 μCi) ([1,2–3H(N)] cholesterol, 1 mCi/mL, ARC Inc., St. Louis, USA). Plasma, liver, and small intestines were collected 4 h post-gavage. Cholesterol uptake and absorption were determined as previously described.

[1] = gavage 10 mg/kg/day for 2 days, 10 mg/kg/day

Compound | pIC50 (human NPC1L1) | inhibition at 120 µM (human NPC1L1) [%] | In vivo inhibition (%) of cholesterol absorption, Duodenum (cholesterol absorption; gavage 20 mg/kg/day for 2 days) [%] | In vivo inhibition (%) of cholesterol absorption, Ileum (cholesterol absorption; gavage 20 mg/kg/day for 2 days) [%] | In vivo inhibition (%) of cholesterol absorption, Jejunum (cholesterol absorption; gavage 20 mg/kg/day for 2 days) [%] | In vivo inhibition (%) of cholesterol absorption, Liver (cholesterol absorption; gavage 20 mg/kg/day for 2 days) [%] | In vivo inhibition (%) of cholesterol absorption, Plasma (cholesterol absorption; gavage 20 mg/kg/day for 2 days) [%] | effect on cholesterol uptake (human NPC1L1; Figure S3) | In vivo inhibition (%) of cholesterol absorption, Duodenum (cholesterol absorption; gavage 10 mg/kg/day for 2 days) [%] | In vivo inhibition (%) of cholesterol absorption, Ileum (cholesterol absorption; gavage 10 mg/kg/day for 2 days) [%] | In vivo inhibition (%) of cholesterol absorption, Jejunum (cholesterol absorption; gavage 10 mg/kg/day for 2 days) [%] | In vivo inhibition (%) of cholesterol absorption, Liver (cholesterol absorption; gavage 10 mg/kg/day for 2 days) [%] | In vivo inhibition (%) of cholesterol absorption, Plasma (cholesterol absorption; gavage 10 mg/kg/day for 2 days) [%] | reduction of radioactivity in the small intestine (cholesterol absorption; 10 mg/kg/day, small intestine overall, not statistically significant) [%] | In vivo inhibition (%) of cholesterol absorption, Ileum (cholesterol absorption; [1]) | In vivo inhibition (%) of cholesterol absorption, Liver (cholesterol absorption; [1]) | In vivo inhibition (%) of cholesterol absorption, Plasma (cholesterol absorption; [1]) | In vivo inhibition (%) of cholesterol absorption, Ileum (cholesterol absorption; gavage 20 mg/kg/day for 2 days, 20 mg/kg/day) | inhibition of [3H]cholesterol in the ileum (cholesterol absorption; span over the 10 and 20 mg/kg/day groups)
O=C1[C@H](NCC(O)c2ccc(F)cc2)[C@@H](c2ccc(O)cc2)N1c1ccc(F)cc1 (mixture of isomers) [5/6 (70:30), (3R,4R)-3-[(2R/S)-2-(4-fluorophenyl)-2-hydroxyethylamino]-1-(4-fluorophenyl)-4-(4-hydroxyphenyl)azetidin-2-one] | 4.22 | 50 to 55 | 49 ± 7 | 41 ± 21 | 48 ± 9 | 70 ± 5 | 64 ± 7 |  |  |  |  |  |  |  |  |  |  |  | 
O=C1[C@H](CC[C@H](O)c2ccc(F)cc2)[C@@H](c2ccc(O)cc2)N1c1ccc(F)cc1 [Compound 1, ezetimibe, reference compound] |  |  |  |  |  |  |  | inhibited cholesterol uptake | 65 ± 1 | 47 ± 3 | 61 ± 2 | 52 ± 3 | 60 ± 6 |  |  |  |  |  | 
O=C1[C@H](NC[C@H](O)c2ccc(F)cc2)[C@@H](c2ccc(O)cc2)N1c1ccc(F)cc1 [Compound 5] | 4.14 | 50 to 55 | 18 ± 14 |  | 19 ± 16 | 33 ± 6 | 52 ± 7 |  | 23 ± 18 |  | 23 ± 13 |  |  | ~22 | 21% and 21 ± 20% | 44% and 44 ± 6 % | 50% and 50 ± 8 % | 41% and 41 ± 12 % | 
O=C1[C@H](NC[C@@H](O)c2ccc(F)cc2)[C@@H](c2ccc(O)cc2)N1c1ccc(F)cc1 [Compound 6, (3R,4R)-3-[(2S)-2-(4-fluorophenyl)-2-hydroxyethylamino]-1-(4-fluorophenyl)-4-(4-hydroxyphenyl)azetidin-2-one] | 4.10 | 50 to 55 | 35 ± 9 | 60 ± 9 | 26 ± 8 | 49 ± 10 | 38 ± 11 |  | 43 ± 11 | 58 ± 8 | 37 ± 11 |  |  |  |  | 47% and 47 ± 0 % | 32% and 32 ± 5 % |  | 58–60%
